Experimental findings from patent US12441811B2, “Compositions and methods for treating serpin B13 disorders” (REGENTS OF THE UNIVERSITY OF MINNESOTA, priority 2019, dated 2025) are described below.

In one assay the test system is Notch1 receptor. Kind of assay: Examination of Notch1 receptor in embryonic pancreas (Western blot, flow cytometry, qPCR). In kind it is cell-based, mouse. As for the experimental part:
Staining for flow cytometry. BD LSRFortessa X-20, LSR-II and FACSCanto-II were used for FACS analysis. Positive populations of cells were gated and counted using FlowJo ver.10 software. For the islet cells isolated from adult mice, intracellular staining to detect glucagon and insulin was used to count single-positive as well as double-negative cells. In the cells isolated from embryonic pancreas explants, intracellular staining was performed to detect Ngn3, CK19, and active Notch, and extracellular staining was used to detect the extracellular Notch domain, EpCAM, CD31 and CD45.
Western blotting. Pancreatic tissues were processed from E16.5 embryos as single samples and directly used for lysis. Embryonic pancreas explants from E12.5 embryos were cultured in vitro with anti-serpinB13 mAb (or control Ab) for 24 or 48 hours, then, three explant cultures were combined and lysed. The samples were washed two times in ice-cold PBS and lysed with gentle pipetting for 10 minutes with additional tap-vortexing for 15 minutes in RIPA buffer containing Halt protease inhibitors (cat. no. 1862209, Thermo Fisher Scientific). Equal amounts of protein in each sample were run under reducing conditions on Bis-Tris BOLT gradient gel (4-12%) or NUPAGE Tris-acetate gradient gels (4-12%) (both from Thermo Fisher Scientific), and transferred onto […] nitrocellulose or activated PVDF membranes. The membranes were blocked with 5% skim milk and stained with primary and secondary antibodies, as indicated. The Western blots were developed with SuperSignal West Pico Chemiluminescent Substrate or West Femto Maximum Sensitivity Substrate (cat. nos. […] and […], respectively; both from Thermo Scientific), and scanned using the ChemiDoc™ MP Imaging System (Bio-Rad, Hercules, […], USA).
Quantitative real-time PCR. Total RNA from embryonic pancreases was extracted using the RNeasy UCP Micro kit (cat. no. 73934; Qiagen, Hilden, Germany) to measure expression of the Notch1 gene. One hundred to […] of the total RNA per group was reverse transcribed to cDNA using the iScript cDNA Synthesis Kit (cat. no. 1708891; Bio-Rad). Quantitative PCR assays were performed on an Applied Biosystems QuantStudio 3 real-time PCR system using cDNA and the Kapa Sybr Fast reagent (cat. no. 0795959100; Roche). Actin-R was used as a reference gene. The primer sequence for Notch1 was as follows: forward—5′[…]3′ and reverse—5′ […]3′.
For orientation: Immunoblotting shows a protein as a band on a membrane.

In assay [1] the test system is Ngn3+ endocrine progenitor cells. Kind of assay: Ngn3+ cells in embryonic pancreas explants (E12.5) cultured in vitro. In kind it is cell-based, mouse. Particulars: for number of Ngn3+ endocrine progenitor cells: E12.5 explants, recombinant protein 10 μg/mL, 72 hours vs buffer. As for the experimental part:
Isolation and culture of embryonic pancreas explants. The isolation and culture of embryonic pancreas explants was performed as described elsewhere, with minor modifications.
Processing of pancreatic tissue for immunofluorescence microscopy. The pancreatic tissues were isolated and fixed either overnight (adult pancreases), or for one hour (embryonic pancreas explants), in 2% PFA (pH 7.4), followed by a two-step saturation process: first in a 30% sucrose solution in PBS and then in optimal cutting temperature (OCT) compound. After complete saturation, the tissues were imbedded in OCT using Cryomold and then snap frozen in an ethanol/dry ice bath. The OCT blocks were serially cut through the entire organ to obtain representative sections every 600 μm (6 to 8 sections per adult pancreas), 50 μm (12 to 14 sections per E16.5 embryonic pancreas), 35 μm (10 to 12 sections per E14.5 embryonic pancreas), or 15 μm (10 to 12 sections per E12.5 embryonic pancreas cultured for 1 to 3 days). For the embryonic linage tracing experiments, three largest sections were taken for the analysis. For all other experiments involving immunofluorescence microscopy, all obtained sections were analyzed. […]
The sections from the pancreases of embryos at age E14.5 and E16.5, and newborn pups (OP), were stained with anti-Ngn3 antibody to determine the total number of endocrine progenitors cells for all sections per explant combined (FIG. 9G, FIG. 17A). Alternatively, the sections representing the pancreases of embryos at age E12.5 (which are considerably smaller) were stained with both anti-Ngn3 and anti-CK19 antibodies to determine the fraction of CK19-positive area that was occupied by Ngn3− positive staining (FIGS. 9D, 10A, 10C, 12D, 12G, 12J and FIGS. 15A, 20B). The following formula was used to adjust for any differences in the pancreas size: (Ngn3^+ cell number/μm^2 of CK19^+ cells)×10^5.
Image analysis. Embryonic images were processed with a plugin-Trainable Weka Segmentation v3.2.28 (Hamilton, New Zealand) for ImageJ v.1.52jv software. To classify and quantify the images in unbiased fashion, we defined the following four classes for the analysis: Ngn3^+ cells, the clusters of cytokeratin 19^+ cells, the negatively stained areas, and background (e.g., the area outside of tissue sample). Alternatively, the Visiopharm version 6.0 software (Visiopharm, Hoerholm, Denmark) with Author module was used to create applications to outline Ngn3^+ cells or double positive cells expressing YFP and insulin using preprocessing and postprocessing steps, when necessary. In addition, the Engine module of the Visiophram module was used to execute created applications and unbiasedly analyze the images. For the unbiased quantitative analysis of β-cells and islets in the whole pancreatic sections, Visiopharm Author module was trained to recognize insulin-positive β-cell clusters with diameter greater than 50 μm as well as negatively stained section area. In all studies involving microscopy the treatment assignments were blinded to investigators who performed data analysis.

On to `CC(C)C[C@H](NC(=O)[C@H]1O[C@@H]1C(=O)O)C(=O)NCCCCN=C(N)N` [Clone E64, reference compound], for which the “mAb-induced Notch1 degradation fragments in presence of protease inhibitor” value in the assay on Notch1 receptor (E64 1 μM with antibody for 48 hours) is “almost completely prevented”. Moreover, in assay [1] (E12.5 WT explants, E64 10 μM, 48 hours vs DMSO), the “size of the Ngn3+ cell population” value was “significantly reduced”.
As for “chicken ovalbumin: non-inhibitory structural homolog and founding member of the clade B serpin family, used as control [reference compound]”, in assay [1], the “number of Ngn3+ endocrine progenitor cells” value (shortened to “number”) is “not”.
Take “recombinant CatL: recombinant mouse cathepsin L”: the “cleavage of the extracellular domain of Notch1” value in the assay on Notch1 receptor (recombinant CatL 2.5 μg/mL for last 4 hours of 48-hour incubation) was “cleaved”. For the same molecule, the Ngn3 cells result in assay [1] (recombinant mouse cathepsin L 2.5 μg/mL for 4 hours vs buffer) is “induced additional”.

B1: recombinant serpinB13 protein: recombinant serpinB13 (mouse and human not distinguished at this place) (protein)
chain: MDSLGAVSTRLGFDLFKELKKTNDGNIFFSPVGILTAIGMVLLGTRGATASQLEEVFHSEKETKSSRIKAEEKEVIENTEAVHQQFQKFLTEISKLTNDYELNITNRLFGEKTYLFLQKYLDYVEKYYHASLEPVDFVNAADESRKKINSWVESKTNEKIKDLFPDGSISSSTKLVLVNMVYFKGQWDREFKKENTKEEKFWMNKSTSKSVQMMTQSHSFSFTFLEDLQAKILGIPYKNNDLSMFVLLPNDIDGLEKIIDKISPEKLVEWTSPGHMEERKVNLHLPRFEVEDGYDLEAVLAAMGMGDAFSEHKADYSGMSSGSGLYAQKFLHSSFVAVTEEGTEAAAATGIGFTVTSAPGHENVHCNHPFLFFIRHNESNSILFFGRFSSP
For the molecule B1, the “number” value in assay [1] is recorded as “downregulate”.

B2: human recombinant serpinB13: recombinant human serpinB13 expressed in baculovirus (protein)
chain: MDSLGAVSTRLGFDLFKELKKTNDGNIFFSPVGILTAIGMVLLGTRGATASQLEEVFHSEKETKSSRIKAEEKEVIENTEAVHQQFQKFLTEISKLTNDYELNITNRLFGEKTYLFLQKYLDYVEKYYHASLEPVDFVNAADESRKKINSWVESKTNEKIKDLFPDGSISSSTKLVLVNMVYFKGQWDREFKKENTKEEKFWMNKSTSKSVQMMTQSHSFSFTFLEDLQAKILGIPYKNNDLSMFVLLPNDIDGLEKIIDKISPEKLVEWTSPGHMEERKVNLHLPRFEVEDGYDLEAVLAAMGMGDAFSEHKADYSGMSSGSGLYAQKFLHSSFVAVTEEGTEAAAATGIGFTVTSAPGHENVHCNHPFLFFIRHNESNSILFFGRFSSP
As to B2, in assay [1], the “number” value is “significant drop”.

B3: mouse recombinant serpinB13: recombinant serpinB13 of mouse (protein)
chain: MDSLGTAATQFLFDLFKELNKTNDGNVFFSPVGISTAIGMIILGTRGATASELQKVLYTEQGTESSRIKSEEEEIEKREEIHHQLQMLLTEISKFSNDYDLIISNRLFGEKTYLFLQKYIDYVEKYYHASLEPVDFVNAADESRKKINSWVESQTNVKVKDLFPEGSLNSSTKLVLINTVYFKGLWDREFKKEHTKEEDFWLNKNLSKPVQMMALCSSFNFTFLEDLQAKIVGIPYKNNDISMFVLLPNDIDGLEKIMDKMSPEKLVEWTSPGHLEQRRVDLRLPRLQVEETYDLEPVLEAVGIHSAFSEHADYSGMSARSGLHAQNFLHRSFLVVTEEGVEATAGTGVGLKVSSAASCELVHCNHPFLFFIRHRESDSILFFGKFSSP
On to B3, for which the “number” value in assay [1] is listed as “significant drop”.
